Assay results taken from patent US20080267948A1, “Croos-B Structure Binding Compounds” (priority 2005, published 2008).
“Also recorded” adds a separate entry of the source.

Tests used:
heat-denatured ovalbumin = target: T1, heat-denatured ovalbumin (Gallus gallus, UniProt P01012); test: Thioflavin T fluorescence of ovalbumin and small compounds; design: species or system chicken; settings: 1 mg/ml compound, 1 mg/ml OVA
T1 construct: purchased Sigma A5503
T1 sequence (P01012 1-386): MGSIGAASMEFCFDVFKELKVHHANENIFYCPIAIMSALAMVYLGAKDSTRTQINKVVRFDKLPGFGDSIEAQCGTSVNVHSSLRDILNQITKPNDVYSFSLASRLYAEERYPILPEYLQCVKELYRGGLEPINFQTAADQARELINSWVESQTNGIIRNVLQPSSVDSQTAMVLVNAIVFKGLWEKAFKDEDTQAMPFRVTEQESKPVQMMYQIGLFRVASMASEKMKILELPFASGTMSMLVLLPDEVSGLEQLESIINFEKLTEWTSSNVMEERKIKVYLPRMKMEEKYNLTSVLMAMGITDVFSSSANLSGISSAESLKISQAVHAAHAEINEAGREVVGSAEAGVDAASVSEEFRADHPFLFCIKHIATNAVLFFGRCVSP
Description: To establish the enhancement of Thioflavin T fluorescence by ovalbumin preparations, 90 μl of 25 μM ThT-solution in 50 mM Glycine buffer (pH 9.0) was added to 10 μl sample in duplicate wells of black 96-wells plates. Heat-denatured ovalbumin at 1 mg/ml in PBS with no addition, DMSO at a final concentration of 1% v/v, or 1 mg/ml of the compounds listed in Table 7, was used. Compound stocks are 100 mg/ml in DMSO. In addition, ovalbumin at 1 mg/ml with the same additions was first heat denatured and subsequently used in the fluorescence assay. Heat denaturation was according to the protocol given above. Fluorescence of duplicates was measured on a Thermo Fluoroskan Ascent 2.5, at 435 nm excitation and 485 nm emission wavelengths.

amyloid-β(1-40) E22Q = target: T2, amyloid-β(1-40) E22Q (Homo sapiens, UniProt P05067, E693Q); test: ELISA binding of tPA to immobilized Aβ after pre-incubation with compounds; settings: for % tPA binding (after compound incubation), Aβ: 1 μg/ml coated Aβ first exposed to 500 μg/ml compound, then 80 nM tPA, control = 100
T2 construct: For similar ELISA's with DOVA and Aβ(1-40) E22Q, 1 μg/ml DOVA or Aβ was coated; purchased Peptide facility, Dutch Cancer Institute, Amsterdam; host or cells: synthetic peptide
Description: (§1) Compounds were now diluted 10× in PBS/0.1% Tween20 (500 μg/ml compound). […] With this approach a further selection of the compounds was achieved. Now, compounds that at least interact with HB-AGE are selected. With the selection, similar binding assays are performed with misfolded OVA and Aβ. Finally, concentration series of the selected compounds are used in the binding studies.

[1] = target: T3, heat-denatured misfolded ovalbumin (DOVA) (Gallus gallus, UniProt P01012); test: ELISA binding of tPA to immobilized misfolded ovalbumin after pre-incubation with compounds; design: species or system chicken; settings: for influence on tPA binding to immobilized misfolded OVA: misfolded OVA first overlayed with compound (concentration series), then tPA; for activity at 500 µg/mL: read-out: % tPA binding (after compound incubation), DOVA
T3 construct: purchased Sigma A5503
T3 sequence (P01012 2-386 limits assumed): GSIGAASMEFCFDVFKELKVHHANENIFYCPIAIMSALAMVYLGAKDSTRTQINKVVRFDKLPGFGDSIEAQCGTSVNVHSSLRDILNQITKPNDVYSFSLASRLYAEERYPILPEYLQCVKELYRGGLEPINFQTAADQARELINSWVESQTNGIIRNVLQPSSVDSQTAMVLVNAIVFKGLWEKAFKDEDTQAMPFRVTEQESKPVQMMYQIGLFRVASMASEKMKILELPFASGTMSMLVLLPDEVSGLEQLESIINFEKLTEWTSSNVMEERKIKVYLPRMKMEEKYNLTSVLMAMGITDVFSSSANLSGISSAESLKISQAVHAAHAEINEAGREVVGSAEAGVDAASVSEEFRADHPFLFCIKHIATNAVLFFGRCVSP
Description: as §1

tPA/plasminogen = target: T4, tPA/plasminogen (Homo sapiens, UniProt P00750); test: tPA/plasminogen activation by OVA heated in the presence of compounds (substrate PNAPEP1751); assay type: biochemical; settings: 25 μg/ml OVA, 25 μg/ml compound, […] DMSO
T4 construct: purchased Boehringer Ingelheim Actilyse
Description: Heated OVA, either in PBS/1% DMSO (positive control), or in the same buffer in the presence of 1 mg/ml of the compounds, was used 40-fold diluted in the assay. Negative control was buffer without OVA. […] In addition, it was assessed whether the compounds interfere with absorbance readings at 405 nm, with converted chromogenic substrate. […] The yellow solution is divided over wells of an ELISA plate. […] Signals are compared and related to the control.

[2] = target: T5, Hb-AGE (glucose-6-phosphate modified human haemoglobin) (Homo sapiens, UniProt P68871+P69905); test: ELISA binding of tPA to immobilized Hb-AGE, compounds co-incubated with tPA; settings: compound mixed with tPA, control without compound = 100
T5 construct: purchased Sigma-Aldrich H7379
Description: The small compound library is depicted in Tables 4-5. […] Binding experiments were performed in single wells per compound, in a duplicate experiment. Binding data obtained with this duplicate experiment was averaged.
• 1. […] Coat buffer in control wells. • 2. wash three times with wash buffer • 3. Block all wells with 300 μl 0.5*recommended concentration Roche blocking reagent for 30 minutes at room temperature, with agitation • 4. wash twice • 5. […] Incubate for 30 minutes at room temperature, with agitation • 7. wash five times with TBS/0.1% Tween20 • 8. […] Incubate for 30 minutes at room temperature, with agitation • 10. wash five times with TBS/0.1% Tween20 • 11. Fill wells with 3000× diluted horse raddish peroxidase-labeled polyclonal rabbit anti-mouse antibody (RAMPO, DAKOCytomation) • 12. Incubate for 20 minutes at room temperature, with agitation • 13. Wash five times with TBS/0.1% Tween20 • 14. Wash twice with PBS • 15. Stain with 100 μl TMB, stop with 50 μl 10% H2SO4 • 16. Read absorbance at 450 nm

ovalbumin = target: T6, ovalbumin (Gallus gallus, UniProt P01012); test: Transmission electron microscopy of ovalbumin heated in the presence of small compounds; design: species or system chicken; settings: 1 mg/ml ovalbumin heated with 1 mg/ml compound
T6 construct: purchased Sigma A5503
T6 sequence (P01012 1-386): T1 sequence (P01012 1-386)
Description: For TEM analyses grids were prepared according to standard procedures. Ovalbumin samples at 1 mg/ml were applied to 100-mesh copper grids with carbon coated Formvar (Merck, Germany), and subsequently washed with PBS and H2O. Grids were applied to droplets of 2% (m/v) methylcellulose with 0.4% (m/v) uranylacetate pH 4. After a 2-minutes incubation grids were dried on a filter. Images were recorded at 80 kV, at suitable magnifications on a JEM-1200EX electron microscope (JEOL, Japan).

Hb-AGE = target: T7, Hb-AGE (Homo sapiens, UniProt P68871+P69905); test: ELISA binding of tPA to immobilized Hb-AGE after pre-incubation with compounds; settings: Hb-AGE first overlayed with compound (concentration series), then tPA
T7 construct: purchased Sigma-Aldrich H7379
Description: Compounds were now diluted 10× in PBS/0.1% Tween20 (500 μg/ml compound). […] With the selection, similar binding assays are performed with misfolded OVA and Aβ. Finally, concentration series of the selected compounds are used in the binding studies.

T2 sequence (P05067 672-711 E693Q): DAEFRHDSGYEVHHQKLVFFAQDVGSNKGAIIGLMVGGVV
T5 sequence (P69905 2-142 limits assumed): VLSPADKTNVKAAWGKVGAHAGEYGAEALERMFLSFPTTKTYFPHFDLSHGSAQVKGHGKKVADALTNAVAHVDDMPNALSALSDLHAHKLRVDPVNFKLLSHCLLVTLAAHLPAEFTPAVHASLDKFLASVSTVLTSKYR
T5 sequence (P68871 2-147 limits assumed): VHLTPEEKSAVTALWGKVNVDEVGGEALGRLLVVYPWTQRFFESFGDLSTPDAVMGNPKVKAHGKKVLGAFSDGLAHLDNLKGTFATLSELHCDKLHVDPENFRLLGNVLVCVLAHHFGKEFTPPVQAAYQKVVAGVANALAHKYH
T4 sequence (P00750 36-562): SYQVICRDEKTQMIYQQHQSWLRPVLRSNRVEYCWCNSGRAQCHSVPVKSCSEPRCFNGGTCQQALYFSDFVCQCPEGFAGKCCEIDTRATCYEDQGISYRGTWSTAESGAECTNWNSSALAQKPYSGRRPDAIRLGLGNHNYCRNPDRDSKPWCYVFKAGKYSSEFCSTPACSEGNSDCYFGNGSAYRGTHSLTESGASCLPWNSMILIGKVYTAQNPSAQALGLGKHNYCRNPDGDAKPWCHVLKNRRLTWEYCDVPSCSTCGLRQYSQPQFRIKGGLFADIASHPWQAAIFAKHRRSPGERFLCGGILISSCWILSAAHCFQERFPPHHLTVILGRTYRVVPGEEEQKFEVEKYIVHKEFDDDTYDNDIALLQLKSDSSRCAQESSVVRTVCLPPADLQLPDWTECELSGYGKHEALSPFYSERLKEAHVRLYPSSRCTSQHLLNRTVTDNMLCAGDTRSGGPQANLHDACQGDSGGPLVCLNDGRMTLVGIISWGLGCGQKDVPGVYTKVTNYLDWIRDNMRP
T7 sequence (P69905 2-142 limits assumed): as the sequence (P69905 2-142 limits assumed) above
T7 sequence (P68871 2-147 limits assumed): as the sequence (P68871 2-147 limits assumed) above

| SMILES | % tPA binding to Hb-AGE (co-incubation) [2] [%] | activity at 500 µg/mL [1] [%] | % tPA binding (after compound incubation), Aβ (amyloid-β(1-40) E22Q) [%] | other results |
| --- | --- | --- | --- | --- |
| Cc1ccc(C(=O)[C@@H]2[C@H]3C4COC(O4)C(=O)[C@@H]3[C@H]3C=Cc4ccccc4N32)cc1 (some centres unmarked) [compound 15] | – | – | – | influence on Thioflavin T fluorescence with misfolded OVA (heat-denatured ovalbumin): Inhibition on Thioflavin T fluorescence with misfolded OVA; influence on tPA binding to immobilized Aβ (amyloid-β(1-40) E22Q; Aβ first overlayed with compound (concentration series), then tPA): Inhibited tPA binding to immobilized misfolded protein (Aβ) |
| Cn1ccc(O)c(C#N)c1=O [compound 51] | – | – | – | influence on tPA binding to immobilized misfolded OVA [1]: Stimulated tPA binding to immobilized misfolded protein; influence on tPA/plasminogen activation by OVA pre-heated in the presence of compound (tPA/plasminogen): Inhibition of tPA/plasminogen activation by OVA pre-heated |
| COc1cc2c(cc1O)CC1c3c(cc(O)c(OC)c3-2)CCN1C (centres unmarked) [compound 53] | 55 | – | – | – |
| COc1cc2c(cc1OC)-c1c(OC)c(OC)c(CO)c3c1C(C2)N(C)CC3 (centres unmarked) [compound 71] | 50 | – | – | – |
| CN1CCc2cccc3c2C1Cc1ccc(O)c(O)c1-3 (centres unmarked) [compound 85] | – | 135 | – | – |
| COC(=O)[C@H]1[C@H]2C[C@H]3c4[nH]c5ccccc5c4CCN3C[C@@H]2CC[C@@H]1O [compound 126, corynanthine] | – | – | – | appearance of ovalbumin heated in the presence of compound on TEM image (ovalbumin): No protein visible; influence on tPA binding to immobilized misfolded OVA [1]: Stimulated tPA binding to immobilized misfolded protein |
| COc1ccc2c(c1O)-c1c(OC)c(OC)cc3c1[C@H](C2)N(C)CC3 [compound 138] | 50 | 65 | – | – |
| COc1cc2c(cc1O)-c1c(O)c(OC)cc3c1[C@H](C2)N(C)CC3 [compound 203, Bracteoline] | 55 | 105 | 85 | – |
| COc1cc2c(cc1OC)-c1c(OC)c(OC)cc3ccnc(c13)C2=O [compound 204, 7-Oxoglaucine] | 70 | 80 | 55 | – |
| COc1cc2c(Cc3c4c5c(cc(OC)c(OC)c5c5c(OC)c(OC)ccc35)CCN4C)c3c4c(cc(OC)c(OC)c4c2cc1OC)CCN3C [compound 210, dehydroglaucine derivative] | 80 | 90 | 30 | – |
| COc1cc2c(cc1OC)-c1c(OC)c(OC)c(C=O)c3c1[C@H](C2)N(C)CC3 [compound 213, dehydroglaucine derivative] | 60 | 105 | 210 | – |
| Br.CC(=O)N1C=C(C2CCCCN2)CCC1 (centres unmarked) [compound 217, Ammophedrine HBr] | – | – | – | influence on tPA binding to immobilized Hb-AGE (Hb-AGE): Inhibited tPA binding to immobilized misfolded protein (Hb-; appearance of ovalbumin heated in the presence of compound on TEM image (ovalbumin; HBr): less OVA aggregates after heating in the presence of the; also recorded: Only small amorphous aggregates like Control; influence on tPA binding to immobilized misfolded OVA [1]: Inhibited tPA binding to immobilized misfolded protein (Hb- |
